# BindingDB's records for doi:10.7270/Q2QN6575 (Nmmlsc, 2011)
# pEC50: −log10 of the molar value.
# Molecular target: T1, Citrate synthase, peroxisomal [1-24] (Saccharomyces cerevisiae, UniProt P08679)
# T1 construct: 1-24
# Assay: yeast TOR pathway CIT2-GFP reporter analogs – flow cytometry, cherry pick 3, dose response, SAR follow-up (AID 488825)
# Settings: not given
# T1 sequence (P08679 1-24): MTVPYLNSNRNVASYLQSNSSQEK
row,Structure (SMILES),pEC50
1,"Cc1nc(Nc2ccc(Br)cc2Br)c([N+](=O)[O-])c(=O)[nH]1 [6-[[2,4-bis(bromanyl)phenyl]amino]-2-methyl-5-nitro-1H-pyrimidin-4-one]",4.13

# Same assay, conditions: inactive by the depositor's call
row,Structure (SMILES),pEC50
1,COc1ccccc1-c1cc(C(F)(F)F)nc(S(=O)(=O)CCCC(=O)O)n1 [4-[4-(2-methoxyphenyl)-6-(trifluoromethyl)pyrimidin-2-yl]sulfonylbutanoic acid],4.24
2,Cc1ccc(C(=O)Nc2nc(-c3ccccn3)cs2)o1 [5-methyl-N-[4-(2-pyridinyl)-2-thiazolyl]-2-furancarboxamide],2.43
3,O=C(O)c1ccc2cccc(O)c2n1 [8-oxidanylquinoline-2-carboxylic acid],3.52
4,Oc1c(Cl)cc(Cl)c2cccnc12 [AS-229],1.70
5,CCC(C)Nc1nc(N)c([N+](=O)[O-])c(Nc2ccccc2OC)n1 (stereo unspecified) [SMR000434817],3.89
